{"source": "patent US6338955B2", "about": "“β1-4 N-acetylglucosaminyltransferase and gene encoding” (Kirin Beer Kabushiki Kaisha, priority 1996, dated 2002)", "key": {"GnT-IV [1]": {"target": "T1, GnT-IV (Bos taurus, UniProt O77836)", "T1 construct": "it is thought that GnT-IV from bovine small intestine is a glycoprotein having at least Asn-linked sugar chains; from tissue; host or cells: bovine small intestine (microsome fraction, Triton X-100 solubilized, purified to Sample 7)", "T1 sequence (O77836 93-535 limits assumed)": "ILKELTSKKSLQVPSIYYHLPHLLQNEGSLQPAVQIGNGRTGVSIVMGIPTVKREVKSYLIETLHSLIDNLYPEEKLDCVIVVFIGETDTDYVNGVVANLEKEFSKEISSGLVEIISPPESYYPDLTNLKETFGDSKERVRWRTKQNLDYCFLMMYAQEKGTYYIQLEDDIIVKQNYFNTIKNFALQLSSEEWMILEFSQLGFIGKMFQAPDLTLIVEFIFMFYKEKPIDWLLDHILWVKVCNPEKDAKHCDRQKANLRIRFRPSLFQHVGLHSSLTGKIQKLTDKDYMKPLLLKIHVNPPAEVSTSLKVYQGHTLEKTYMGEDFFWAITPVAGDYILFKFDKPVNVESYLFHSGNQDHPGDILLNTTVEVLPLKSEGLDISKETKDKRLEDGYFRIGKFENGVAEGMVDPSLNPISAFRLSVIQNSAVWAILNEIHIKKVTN", "assay": "Specific assay for GnT-IV activity (pyridylaminated oligosaccharide acceptor, HPLC) with purified enzyme", "assay_type": "biochemical, bovine", "conditions": "for Activity (%), Inhibition of GnT-IV by Nucleotides: nucleotide 2 mM in the presence of 0.5 mM UDP-GlcNAc, nothing added = 100%", "experimental": "Then, the reaction was terminated by boiling the solution for 2 minutes. […] The fluorescence of pyridylamino groups was detected using excitation at 320 nm and emission at 400 nm."}, "GnT-IV [2]": {"target": "T2, GnT-IV (Bos taurus, UniProt O77836)", "T2 construct": "it is thought that GnT-IV from bovine small intestine is a glycoprotein having at least Asn-linked sugar chains; from tissue; host or cells: bovine small intestine (microsome fraction, Triton X-100 solubilized, purified to Sample 7)", "T2 sequence (O77836 1-535)": "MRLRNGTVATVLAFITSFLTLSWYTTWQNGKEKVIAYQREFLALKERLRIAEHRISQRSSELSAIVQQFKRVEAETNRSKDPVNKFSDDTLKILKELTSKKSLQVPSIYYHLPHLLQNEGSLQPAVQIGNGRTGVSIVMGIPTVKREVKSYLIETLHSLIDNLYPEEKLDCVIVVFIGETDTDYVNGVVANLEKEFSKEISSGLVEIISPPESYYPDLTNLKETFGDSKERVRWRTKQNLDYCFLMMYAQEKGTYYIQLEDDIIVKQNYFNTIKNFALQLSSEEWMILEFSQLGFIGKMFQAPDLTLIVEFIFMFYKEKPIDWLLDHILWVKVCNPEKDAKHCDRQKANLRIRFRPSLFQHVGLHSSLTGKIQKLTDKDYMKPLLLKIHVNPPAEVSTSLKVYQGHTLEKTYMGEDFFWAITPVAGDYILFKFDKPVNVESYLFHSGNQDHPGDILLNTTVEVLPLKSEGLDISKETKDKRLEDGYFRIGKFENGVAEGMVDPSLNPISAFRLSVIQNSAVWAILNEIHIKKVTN", "assay": "Action of GnT-IV on glycoproteins (UDP-[14C]GlcNAc, SDS-PAGE and fluorography)", "assay_type": "biochemical, bovine", "conditions": "37° C., 20 hours; FIG. 17 Panel B lanes 2 and 5", "experimental": "GnT-IV reaction conditions: To 10 μl of a solution containing […] of GnT-IV, a substrate glycoprotein equivalent to 1.6 nmol of biantennary type sugar chains (for fetuin alone, the sugar chain content was 1.6 nmol) and 450 nCi of UDP-[^14C] […] One tenth of the resultant solution was analyzed by SDS-PAGE and fluorography.\nFor SDS-PAGE, 10-20% gradient gel (Daiichi Kagaku) was used. For fluorography, Amplify (Amersham) was used to expose the samples to X ray film for 20 hours.\nGlcNAc as a sugar donor. Then, the reaction products were analyzed by SDS-PAGE and fluorography (Panels A and B, FIG. 17). As shown in lanes 2 and 5 of Panel B in FIG. 17, transfer of [^14 C] GlcNAc to asialo agalacto human transferrin and asialo agalacto, CHO cell-derived recombinant human erythropoietin."}, "[3]": {"conditions": "additive 10 mM added to GnT-IV sample freed of metal ions, activity with 10 mM MnCl2 = 100%"}}, "note": "“Also recorded” adds a separate entry of the source. Read-outs that look alike come from different tables or passages of the source.", "data": [{"compound": "NCCCCCCOP(=O)(O)OP(=O)(O)OCC1OC(n2ccc(=O)[nH]c2=O)C(O)C1O", "note": "(centres unmarked) [UDP-hexanolamine]", "values": [{"measurement": "Activity (%), Inhibition of GnT-IV by Nucleotides", "setting": "GnT-IV [1]", "value": 73.6, "unit": "%"}]}, {"compound": "O=c1ccn([C@@H]2O[C@H](COP(=O)(O)OP(=O)(O)O)[C@@H](O)[C@H]2O)c(=O)[nH]1", "note": "[UDP]", "values": [{"measurement": "Inhibition of GnT-IV by nucleotides / UDP derivatives", "setting": "GnT-IV [1]", "value": "inhibited the activity of this enzyme most strongly"}, {"measurement": "Activity (%), Inhibition of GnT-IV by Nucleotides", "setting": "GnT-IV [1]", "value": 27.3, "unit": "%"}]}, {"compound": "asialo agalacto, CHO cell-derived recombinant human erythropoietin: recombinant human erythropoietin with high biantennary sugar chain content treated with sialidase and β-galactosidase", "values": [{"measurement": "Transfer of [14C]GlcNAc to glycoprotein by GnT-IV", "setting": "GnT-IV [2]", "value": "transfer of [^14 C] GlcNAc"}]}, {"compound": "[Cl-].[Cl-].[Mg+2]", "note": "[MgCl2]", "values": [{"measurement": "Activity (%), Divalent Cation Requirement of GnT-IV", "setting": "GnT-IV [1]; [3]", "value": 72.5, "unit": "%"}]}, {"compound": "Cc1cn([C@H]2C[C@H](O)[C@@H](COP(=O)(O)OP(=O)(O)O)O2)c(=O)[nH]c1=O", "note": "[TDP]", "values": [{"measurement": "Inhibition of GnT-IV by nucleotides / UDP derivatives", "setting": "GnT-IV [1]", "value": "little inhibitory effect; also recorded: do not have inhibitory effect"}, {"measurement": "Activity (%), Inhibition of GnT-IV by Nucleotides", "setting": "GnT-IV [1]", "value": 110, "unit": "%"}]}, {"compound": "[Cl][Mn][Cl]", "note": "[MnCl2]", "values": [{"measurement": "Requirement of divalent cation: effect of additive on activity", "setting": "GnT-IV [1]", "value": "greatest effect"}, {"measurement": "Activity (%), Divalent Cation Requirement of GnT-IV", "setting": "GnT-IV [1]; [3]", "value": 100, "unit": "%"}]}, {"compound": "O=C(O)[C@H]1O[C@H](OP(=O)(O)OP(=O)(O)OC[C@H]2O[C@@H](n3ccc(=O)[nH]c3=O)[C@H](O)[C@@H]2O)[C@H](O)[C@@H](O)[C@@H]1O", "note": "[UDP-glucuronic acid]", "values": [{"measurement": "Activity (%), Inhibition of GnT-IV by Nucleotides", "setting": "GnT-IV [1]", "value": 92.3, "unit": "%"}]}, {"compound": "O=c1ccn([C@@H]2O[C@H](COP(=O)(O)OP(=O)(O)OP(=O)(O)O)[C@@H](O)[C@H]2O)c(=O)[nH]1", "note": "[UTP]", "values": [{"measurement": "Activity (%), Inhibition of GnT-IV by Nucleotides", "setting": "GnT-IV [1]", "value": 88.2, "unit": "%"}]}, {"compound": "Nc1ccn([C@@H]2O[C@H](COP(=O)(O)OP(=O)(O)O)[C@@H](O)[C@H]2O)c(=O)n1", "note": "[CDP]", "values": [{"measurement": "Inhibition of GnT-IV by nucleotides / UDP derivatives", "setting": "GnT-IV [1]", "value": "little inhibitory effect; also recorded: do not have inhibitory effect"}, {"measurement": "Activity (%), Inhibition of GnT-IV by Nucleotides", "setting": "GnT-IV [1]", "value": 112, "unit": "%"}]}, {"compound": "OCC(O)CO", "note": "[glycerol]", "values": [{"measurement": "Stabilization of the enzyme", "setting": "GnT-IV [1]", "value": "Stabilizing effect is recognized"}]}, {"compound": "O=c1ccn([C@H]2C[C@H](O)[C@@H](COP(=O)(O)OP(=O)(O)O)O2)c(=O)[nH]1", "note": "[2′-deoxy-UDP]", "values": [{"measurement": "Activity (%), Inhibition of GnT-IV by Nucleotides", "setting": "GnT-IV [1]", "value": 67.4, "unit": "%"}]}, {"compound": "CC(=O)N[C@H]1[C@@H](OP(=O)(O)OP(=O)(O)OC[C@H]2O[C@@H](n3ccc(=O)[nH]c3=O)[C@H](O)[C@@H]2O)O[C@H](CO)[C@H](O)[C@@H]1O", "note": "[UDP-N-acetylgalactosamine]", "values": [{"measurement": "Activity (%), Inhibition of GnT-IV by Nucleotides", "setting": "GnT-IV [1]", "value": 59.7, "unit": "%"}]}, {"compound": "[Ca+2].[Cl-].[Cl-]", "note": "[CaCl2]", "values": [{"measurement": "Requirement of divalent cation: effect of additive on activity", "setting": "GnT-IV [1]", "value": "Weak effect"}, {"measurement": "Activity (%), Divalent Cation Requirement of GnT-IV", "setting": "GnT-IV [1]; [3]", "value": 7.2, "unit": "%"}]}, {"compound": "asialo agalacto human transferrin: human transferrin treated with sialidase and β-galactosidase; glycoprotein substrate", "values": [{"measurement": "Transfer of [14C]GlcNAc to glycoprotein by GnT-IV", "setting": "GnT-IV [2]", "value": "transfer of [^14 C] GlcNAc"}]}, {"compound": "CC(=O)N[C@H]1[C@@H](OP(=O)(O)OP(=O)(O)OC[C@H]2O[C@@H](n3ccc(=O)[nH]c3=O)[C@H](O)[C@@H]2O)O[C@H](CO)[C@@H](O)[C@@H]1O", "note": "[UDP-GlcNAc]", "values": [{"measurement": "Km", "setting": "GnT-IV [1]; GnT-II product type oligosaccharide as receptor substrate, conditions (i)/Reference Example 2, read-out: Km toward UDP-GlcNAc", "value": 220, "unit": "µM"}]}, {"compound": "O=c1ccn([C@@H]2O[C@H](CO)[C@@H](O)[C@H]2O)c(=O)[nH]1", "note": "[Uridine]", "values": [{"measurement": "Inhibition of GnT-IV by nucleotides / UDP derivatives", "setting": "GnT-IV [1]", "value": "little inhibitory effect; also recorded: do not have inhibitory effect"}, {"measurement": "Activity (%), Inhibition of GnT-IV by Nucleotides", "setting": "GnT-IV [1]", "value": 115, "unit": "%"}]}, {"compound": "[Cl-].[Cl-].[Co+2]", "note": "[CoCl2]", "values": [{"measurement": "Activity (%), Divalent Cation Requirement of GnT-IV", "setting": "GnT-IV [1]", "value": 74.8, "unit": "%"}, {"measurement": "Effect of divalent cation relative to that of Mn2+", "setting": "GnT-IV [1]", "value": "about 70%"}]}, {"compound": "[Cl][Cu][Cl]", "note": "[CuCl2]", "values": [{"measurement": "Activity (%), Divalent Cation Requirement of GnT-IV", "setting": "GnT-IV [1]; [3]", "value": 0, "unit": "%"}]}, {"compound": "O=c1ccn([C@@H]2O[C@H](COP(=O)(O)O)[C@@H](O)[C@H]2O)c(=O)[nH]1", "note": "[UMP]", "values": [{"measurement": "Inhibition of GnT-IV by nucleotides / UDP derivatives", "setting": "GnT-IV [1]", "value": "little inhibitory effect"}, {"measurement": "Activity (%), Inhibition of GnT-IV by Nucleotides", "setting": "GnT-IV [1]", "value": 97.3, "unit": "%"}]}, {"compound": "[Cl][Fe][Cl]", "note": "[FeCl2]", "values": [{"measurement": "Requirement of divalent cation: effect of additive on activity", "setting": "GnT-IV [1]", "value": "Weak effect"}, {"measurement": "Activity (%), Divalent Cation Requirement of GnT-IV", "setting": "GnT-IV [1]; [3]", "value": 9.8, "unit": "%"}]}]}
